Data on five molecules can be found in the supplement of paper PMC12076712.

For orientation: pIC50 means −log10 of the IC50, conventionally taken in molar units. A low value points to a large IC50.

Experiment in all cases: pIC50, kinobeads binding competition
In one assay the target is STRADB (UniProt Q9C0K7). Conditions: cell material: Lysate mix. The method, boiled down: (§1)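 Live Jurkat cells were treated with nine compound concentrations (top 30 μM, 1:4 steps) or DMSO for 60 min at 37 °C before lysis. Alternatively, Jurkat lysate or a 1:1:1:1 HEK293/K-562/HepG2/placenta lysate mix was incubated with nine concentrations (top 30 μM, 1:5 steps) for 60 min at 4 °C. Kinobeads-bound proteins were digested and quantified by TMT10 LC-MS/MS. pIC50 came from logistic dose-response fits (R drc package) of fold changes versus DMSO, in biological duplicates.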

Another assay has as its target TWF1 (UniProt Q12792). The following applies: cell material: Lysate mix. The procedure, abridged:
as §1

Another assay addresses UniProt P78368. The following applies: cell material: Lysate mix. The procedure, abridged:
as §1

The next assay concerns the target UniProt Q9P286. The following applies: cell material: Lysate mix. The procedure, abridged:
as §1

For another assay, the target named is MTOR (UniProt P42345). The following applies: cell material: Jurkat cells. The method, boiled down: as §1
The next assay deals with PAK6 (UniProt Q9NQU5). Conditions: cell material: Jurkat lysate. The method, boiled down: as §1
PAK6, sequence (Q9NQU5 whole entry, looked up): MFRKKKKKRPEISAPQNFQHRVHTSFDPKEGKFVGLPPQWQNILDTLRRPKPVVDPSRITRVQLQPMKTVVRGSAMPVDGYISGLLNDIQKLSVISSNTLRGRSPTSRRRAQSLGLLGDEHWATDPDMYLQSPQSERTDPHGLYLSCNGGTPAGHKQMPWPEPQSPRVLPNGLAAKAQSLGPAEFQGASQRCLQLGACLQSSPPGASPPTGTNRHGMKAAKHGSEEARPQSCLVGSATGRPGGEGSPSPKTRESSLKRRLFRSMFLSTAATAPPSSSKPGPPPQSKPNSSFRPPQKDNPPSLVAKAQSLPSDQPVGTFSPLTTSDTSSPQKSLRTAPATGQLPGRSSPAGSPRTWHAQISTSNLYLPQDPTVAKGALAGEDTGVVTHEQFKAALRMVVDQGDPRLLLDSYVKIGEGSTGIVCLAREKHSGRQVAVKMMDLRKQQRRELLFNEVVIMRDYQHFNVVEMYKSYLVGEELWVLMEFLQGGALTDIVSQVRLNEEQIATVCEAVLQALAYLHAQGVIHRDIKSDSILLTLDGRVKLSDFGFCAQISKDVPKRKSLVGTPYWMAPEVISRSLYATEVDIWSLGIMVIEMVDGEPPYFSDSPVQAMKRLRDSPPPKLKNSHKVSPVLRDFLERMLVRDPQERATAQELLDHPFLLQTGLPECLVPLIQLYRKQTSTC
The target in another assay is PASK (UniProt Q96RG2). Conditions: cell material: Jurkat cells. The method, boiled down:
as §1

The target of the next assay is RIPK1 (UniProt Q13546). Conditions: cell material: Jurkat cells. The method, boiled down: as §1
The target of the next assay is TYRO3 (UniProt Q06418). The following applies: cell material: Jurkat lysate. The procedure, abridged:
as §1

The next assay has as its target UniProt Q6DT37. The following applies: cell material: Lysate mix. The method, boiled down: as §1
The target in the next assay is T1, DYRK2 (UniProt Q92630).
T1 sequence (whole entry): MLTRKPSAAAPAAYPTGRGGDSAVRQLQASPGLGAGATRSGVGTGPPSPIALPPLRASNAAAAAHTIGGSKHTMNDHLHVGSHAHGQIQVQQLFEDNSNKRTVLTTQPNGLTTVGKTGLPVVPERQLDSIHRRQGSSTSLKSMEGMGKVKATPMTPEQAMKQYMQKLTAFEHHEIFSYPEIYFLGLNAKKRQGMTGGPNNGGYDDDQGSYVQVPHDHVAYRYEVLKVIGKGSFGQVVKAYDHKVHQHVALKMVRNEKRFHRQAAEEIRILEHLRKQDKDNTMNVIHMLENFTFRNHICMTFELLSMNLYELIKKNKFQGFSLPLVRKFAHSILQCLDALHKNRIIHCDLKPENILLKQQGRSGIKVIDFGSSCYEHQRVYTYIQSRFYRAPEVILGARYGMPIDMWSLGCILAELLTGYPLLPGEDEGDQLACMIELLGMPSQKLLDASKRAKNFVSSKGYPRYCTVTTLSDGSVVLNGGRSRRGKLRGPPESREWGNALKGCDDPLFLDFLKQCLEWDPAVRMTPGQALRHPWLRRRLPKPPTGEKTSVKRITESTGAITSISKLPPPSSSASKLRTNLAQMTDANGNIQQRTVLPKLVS
Conditions: cell material: Jurkat lysate.

The target in another assay is T2, MARK4 (UniProt Q96L34).
T2 sequence (whole entry): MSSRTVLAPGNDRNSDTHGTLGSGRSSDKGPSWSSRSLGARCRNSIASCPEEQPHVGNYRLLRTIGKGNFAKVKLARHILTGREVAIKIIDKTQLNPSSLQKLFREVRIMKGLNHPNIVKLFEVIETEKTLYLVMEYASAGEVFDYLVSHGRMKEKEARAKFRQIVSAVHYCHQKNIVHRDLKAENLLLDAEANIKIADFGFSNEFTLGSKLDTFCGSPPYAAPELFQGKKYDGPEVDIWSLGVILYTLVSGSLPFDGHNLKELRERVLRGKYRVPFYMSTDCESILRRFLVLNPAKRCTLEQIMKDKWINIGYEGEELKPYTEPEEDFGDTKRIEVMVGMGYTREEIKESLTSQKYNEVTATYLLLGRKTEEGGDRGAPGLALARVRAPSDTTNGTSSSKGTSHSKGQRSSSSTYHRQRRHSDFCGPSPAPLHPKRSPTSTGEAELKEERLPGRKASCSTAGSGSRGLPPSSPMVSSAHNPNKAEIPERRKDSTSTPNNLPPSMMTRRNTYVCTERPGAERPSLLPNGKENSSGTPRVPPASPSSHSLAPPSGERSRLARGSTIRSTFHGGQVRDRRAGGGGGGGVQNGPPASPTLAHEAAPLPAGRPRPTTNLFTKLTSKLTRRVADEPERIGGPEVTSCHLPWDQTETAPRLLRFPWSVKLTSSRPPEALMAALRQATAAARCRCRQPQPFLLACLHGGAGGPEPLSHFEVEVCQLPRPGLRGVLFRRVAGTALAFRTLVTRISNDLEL
Conditions: cell material: Jurkat lysate.

A further assay has as its target UniProt P07947. Conditions: cell material: Jurkat lysate.
The target in the next assay is T3, ZAP70 (UniProt P43403).
T3 sequence (whole entry): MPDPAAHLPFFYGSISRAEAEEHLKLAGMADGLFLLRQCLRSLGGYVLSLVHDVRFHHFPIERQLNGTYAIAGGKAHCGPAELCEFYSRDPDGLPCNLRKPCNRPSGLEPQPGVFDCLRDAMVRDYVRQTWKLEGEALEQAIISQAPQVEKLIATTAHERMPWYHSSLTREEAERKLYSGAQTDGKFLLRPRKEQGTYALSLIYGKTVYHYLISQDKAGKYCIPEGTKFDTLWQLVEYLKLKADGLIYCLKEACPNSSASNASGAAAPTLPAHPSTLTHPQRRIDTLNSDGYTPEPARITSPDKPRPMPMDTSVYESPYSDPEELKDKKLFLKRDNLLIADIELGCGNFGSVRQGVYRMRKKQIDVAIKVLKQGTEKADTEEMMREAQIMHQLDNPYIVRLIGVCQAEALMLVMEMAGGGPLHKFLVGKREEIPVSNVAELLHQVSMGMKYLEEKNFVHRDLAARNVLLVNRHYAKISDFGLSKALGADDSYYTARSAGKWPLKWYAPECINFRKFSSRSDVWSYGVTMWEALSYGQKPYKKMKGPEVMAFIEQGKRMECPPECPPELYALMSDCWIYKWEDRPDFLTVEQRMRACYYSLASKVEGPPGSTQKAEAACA
Conditions: cell material: Jurkat lysate.

In the next assay the target is PIK3CD (UniProt O00329). The following applies: cell material: Jurkat cells. The method, boiled down: as §1
PIK3CD, sequence (O00329 whole entry): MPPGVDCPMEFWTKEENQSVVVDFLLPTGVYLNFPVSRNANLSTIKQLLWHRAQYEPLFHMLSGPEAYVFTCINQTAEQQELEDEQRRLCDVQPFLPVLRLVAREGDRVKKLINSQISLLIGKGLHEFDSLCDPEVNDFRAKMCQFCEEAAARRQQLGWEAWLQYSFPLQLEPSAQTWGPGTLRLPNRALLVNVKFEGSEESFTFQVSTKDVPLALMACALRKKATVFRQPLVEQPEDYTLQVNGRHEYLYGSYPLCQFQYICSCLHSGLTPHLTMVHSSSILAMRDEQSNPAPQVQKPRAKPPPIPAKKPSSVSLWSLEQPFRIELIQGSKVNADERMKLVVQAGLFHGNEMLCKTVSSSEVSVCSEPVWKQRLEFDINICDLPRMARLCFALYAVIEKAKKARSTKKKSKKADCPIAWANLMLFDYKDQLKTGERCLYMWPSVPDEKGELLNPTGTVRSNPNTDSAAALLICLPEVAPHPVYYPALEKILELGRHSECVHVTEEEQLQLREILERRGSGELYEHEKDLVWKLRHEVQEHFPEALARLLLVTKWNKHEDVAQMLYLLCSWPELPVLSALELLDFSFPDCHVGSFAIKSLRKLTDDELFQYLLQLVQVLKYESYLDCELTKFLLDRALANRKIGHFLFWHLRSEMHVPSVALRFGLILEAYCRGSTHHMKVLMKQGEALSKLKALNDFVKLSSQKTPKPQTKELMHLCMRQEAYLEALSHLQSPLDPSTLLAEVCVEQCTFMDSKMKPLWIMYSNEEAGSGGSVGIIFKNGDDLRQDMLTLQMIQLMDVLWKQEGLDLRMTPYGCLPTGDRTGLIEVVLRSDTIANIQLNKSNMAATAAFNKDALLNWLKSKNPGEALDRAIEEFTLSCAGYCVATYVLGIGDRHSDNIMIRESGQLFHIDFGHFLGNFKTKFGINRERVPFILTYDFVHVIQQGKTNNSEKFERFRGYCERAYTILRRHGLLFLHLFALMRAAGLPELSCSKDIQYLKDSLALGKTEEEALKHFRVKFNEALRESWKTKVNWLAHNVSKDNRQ
In a further assay the target is UniProt P05129. The following applies: cell material: Jurkat cells. The procedure, abridged:
as §1

In a further assay the target is UniProt P19525. Conditions: cell material: Lysate mix. The procedure, abridged:
as §1

The next assay addresses UniProt P35590. The following applies: cell material: Lysate mix. The procedure, abridged:
as §1

The target of a further assay is UniProt Q05513. The following applies: cell material: Lysate mix. The procedure, abridged:
as §1

Where only a bound is given, the exact number is not on record here.

UniProt Q05513, sequence (Q05513 whole entry): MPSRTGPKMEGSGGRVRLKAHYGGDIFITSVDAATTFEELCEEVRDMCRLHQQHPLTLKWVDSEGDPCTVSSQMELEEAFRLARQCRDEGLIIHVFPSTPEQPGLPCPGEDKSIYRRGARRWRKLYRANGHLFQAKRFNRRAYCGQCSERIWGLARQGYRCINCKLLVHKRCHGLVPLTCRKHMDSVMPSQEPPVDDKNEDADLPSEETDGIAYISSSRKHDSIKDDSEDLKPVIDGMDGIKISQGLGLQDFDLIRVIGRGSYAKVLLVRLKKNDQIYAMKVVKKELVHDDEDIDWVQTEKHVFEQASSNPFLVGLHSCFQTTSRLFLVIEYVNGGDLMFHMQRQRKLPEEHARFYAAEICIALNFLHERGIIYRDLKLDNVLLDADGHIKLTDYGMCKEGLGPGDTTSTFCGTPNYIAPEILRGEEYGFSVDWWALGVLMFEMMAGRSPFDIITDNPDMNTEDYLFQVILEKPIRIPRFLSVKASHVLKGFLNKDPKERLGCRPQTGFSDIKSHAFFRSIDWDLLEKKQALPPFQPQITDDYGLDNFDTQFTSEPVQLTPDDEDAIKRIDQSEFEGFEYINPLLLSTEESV
PASK, sequence (Q96RG2 whole entry): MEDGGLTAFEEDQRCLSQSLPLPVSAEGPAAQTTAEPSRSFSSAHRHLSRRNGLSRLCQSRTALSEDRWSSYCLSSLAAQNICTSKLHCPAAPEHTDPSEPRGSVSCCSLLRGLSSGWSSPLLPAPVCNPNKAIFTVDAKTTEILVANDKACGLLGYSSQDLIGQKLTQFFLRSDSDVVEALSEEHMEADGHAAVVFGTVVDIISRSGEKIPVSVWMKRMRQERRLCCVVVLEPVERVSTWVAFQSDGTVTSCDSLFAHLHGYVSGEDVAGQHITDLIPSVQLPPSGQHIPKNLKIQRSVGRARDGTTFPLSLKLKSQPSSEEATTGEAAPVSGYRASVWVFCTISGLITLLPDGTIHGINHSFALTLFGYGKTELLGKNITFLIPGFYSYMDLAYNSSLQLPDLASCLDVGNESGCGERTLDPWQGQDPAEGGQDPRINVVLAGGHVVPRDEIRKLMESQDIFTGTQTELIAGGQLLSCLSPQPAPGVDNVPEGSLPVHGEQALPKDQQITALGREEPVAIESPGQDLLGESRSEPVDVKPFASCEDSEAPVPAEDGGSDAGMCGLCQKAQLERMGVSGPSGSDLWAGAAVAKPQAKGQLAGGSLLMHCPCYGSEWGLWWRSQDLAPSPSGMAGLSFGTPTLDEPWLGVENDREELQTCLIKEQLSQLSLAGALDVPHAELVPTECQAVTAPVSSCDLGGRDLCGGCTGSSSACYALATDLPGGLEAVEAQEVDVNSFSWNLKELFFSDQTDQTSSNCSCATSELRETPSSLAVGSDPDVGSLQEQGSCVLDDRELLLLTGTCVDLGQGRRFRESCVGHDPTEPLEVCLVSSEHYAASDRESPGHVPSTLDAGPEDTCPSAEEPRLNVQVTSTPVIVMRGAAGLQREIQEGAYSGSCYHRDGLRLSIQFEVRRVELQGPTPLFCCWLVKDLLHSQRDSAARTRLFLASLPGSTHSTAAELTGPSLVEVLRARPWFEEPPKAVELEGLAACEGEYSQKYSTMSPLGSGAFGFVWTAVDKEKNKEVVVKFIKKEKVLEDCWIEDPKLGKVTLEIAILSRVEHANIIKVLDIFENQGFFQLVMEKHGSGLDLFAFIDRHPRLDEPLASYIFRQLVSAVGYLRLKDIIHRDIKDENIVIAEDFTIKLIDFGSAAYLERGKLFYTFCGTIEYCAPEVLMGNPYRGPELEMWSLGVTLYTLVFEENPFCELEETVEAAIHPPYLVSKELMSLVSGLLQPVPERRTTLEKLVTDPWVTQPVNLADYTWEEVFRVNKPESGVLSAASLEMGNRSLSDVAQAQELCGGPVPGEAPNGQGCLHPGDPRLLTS
UniProt P78368, sequence (P78368 whole entry, looked up): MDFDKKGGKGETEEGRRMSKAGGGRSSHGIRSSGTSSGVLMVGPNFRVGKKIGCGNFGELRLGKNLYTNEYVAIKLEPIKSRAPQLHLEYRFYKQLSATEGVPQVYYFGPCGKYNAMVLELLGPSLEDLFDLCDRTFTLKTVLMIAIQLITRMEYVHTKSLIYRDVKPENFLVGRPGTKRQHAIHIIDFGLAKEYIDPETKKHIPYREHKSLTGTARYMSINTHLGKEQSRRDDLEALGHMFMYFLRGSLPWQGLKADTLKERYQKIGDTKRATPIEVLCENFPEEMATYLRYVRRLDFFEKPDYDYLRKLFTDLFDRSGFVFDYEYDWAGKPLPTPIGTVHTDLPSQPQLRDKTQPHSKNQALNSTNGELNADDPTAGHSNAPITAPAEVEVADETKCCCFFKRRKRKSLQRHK

For the molecule `Cc1cc(Nc2cc(C(=O)NCCNC(=O)OC3CC/C=C/CCC3)nc(N3CCN(Cc4ccc(S(=O)(=O)F)cc4)CC3)n2)n[nH]1` (centres undefined), the pIC50 at STRADB, on TWF1, on UniProt P78368 and at UniProt Q9P286 was below 4.52 each time.

Turning to `C#CCNC(=O)c1cc(Nc2cc(C3CC3)[nH]n2)nc(N2CCN(Cc3ccc(S(=O)(=O)F)cc3)CC2)n1`, the pIC50 on MTOR is below 4.52; on PAK6, 5.49; at PASK, 4.7; on RIPK1 it was 5.32; on TYRO3 it was below 4.52; at UniProt Q6DT37, below 4.52.

As for `CCc1cnn2c(NCc3ccc[n+]([O-])c3)cc(N3CCCC[C@H]3CCO)nc12` [dinaciclib], the pIC50 on DYRK2, at MARK4, at UniProt P07947 and on ZAP70 was below 4.52 in each case.

For the molecule `O=C(NCCNC(=O)c1cc(Nc2cc(C3CC3)[nH]n2)nc(N2CCN(Cc3ccc(S(=O)(=O)F)cc3)CC2)n1)OC1CC/C=C/CCC1` (centres undefined), the pIC50 was below 4.52 at PIK3CD and 4.77 on UniProt P05129.

For the molecule `CCNC(=O)c1cc(Nc2cc(C)[nH]n2)nc(N2CCN(Cc3ccc(S(=O)(=O)F)cc3)CC2)n1`, the pIC50 at UniProt P19525, at UniProt P35590 and at UniProt Q05513 was below 4.52 throughout.
